9 molecules from ChEMBL document CHEMBL3045268, “Synthesis, anticancer, and molecular docking studies of pyranone derivatives” (Med Chem Res, 2013) can be followed below.

Series [1] has as its system Mus musculus. Description: Toxicity in Mus musculus (mouse) transplanted with mouse EAC cells assessed as increase in hemoglobin level at 75 mg/kg, ip measured on day 13 post tumor implantation (reference value: 7.5 +/- 0.01 g%). The format is organism-based, Ehrlich. Further details: dose 75 mg/kg, route intraperitoneal. The conditions noted are these: in vivo.
In series [2] the test system is Mus musculus. Description: Toxicity in Mus musculus (mouse) transplanted with mouse EAC cells assessed as effect on RBC level at 75 mg/kg, ip measured on day 13 post tumor implantation (reference value: 3.95 +/- 0.32 million/mm3). Format: organism-based, Ehrlich. Further details: dose 75 mg/kg, route intraperitoneal. The conditions noted are these: in vivo.
The test system of series [3] is Mus musculus. Kind of series: Toxicity in Mus musculus (mouse) transplanted with mouse EAC cells assessed as effect on lymphocytes level at 75 mg/kg, ip measured on day 13 post tumor implantation (reference value: 35.8 +/- 1.15%). The format is organism-based, Ehrlich. Further details: dose 75 mg/kg, route intraperitoneal. The settings on record: in vivo.
Series [4] deals with Mus musculus. Description: Toxicity in Mus musculus (mouse) transplanted with mouse EAC cells assessed as effect on neutrophils level at 75 mg/kg, ip measured on day 13 post tumor implantation (reference value: 60.4 +/- 1.5%). The settings on record: in vivo. More on the design: dose 75 mg/kg, route intraperitoneal. Format: organism-based, Ehrlich.
The subject of series [5] is Mus musculus. Description: Toxicity in Mus musculus (mouse) transplanted with mouse EAC cells assessed as effect on monocytes level at 75 mg/kg, ip measured on day 13 post tumor implantation (reference value: 1.4 +/- 0.24%). The format is organism-based, Ehrlich. More on the design: dose 75 mg/kg, route intraperitoneal. The conditions noted are these: in vivo.
The nature of series [6]: Antitumor activity against Mus musculus (mouse) EAC cells transplanted in mouse assessed as decrease in body weight at 75 mg/kg, ip measured up to 11 days relative to vehicle-treated control. Format: functional, Ehrlich. More on the design: scale not given: the % may be the effect or the level left. The conditions noted are these: route intraperitoneal.
A short description of series [7]: Antitumor activity against Mus musculus (mouse) EAC cells transplanted in mouse assessed as increase in life span at 75 mg/kg, ip relative to vehicle-treated control. Format: functional, Ehrlich. The conditions noted are these: route intraperitoneal.
The test system of series [8] is Mus musculus. Kind of series: Toxicity in Mus musculus (mouse) transplanted with mouse EAC cells assessed as effect on WBC level measured per 10^3 cells at 75 mg/kg, ip on day 13 post tumor implantation (reference value: 19.49 +/- 0.26 mm3). Format: organism-based, Ehrlich. More on the design: dose 75 mg/kg, route intraperitoneal. The settings on record: in vivo.

For series [9], the system named is Mus musculus. Kind of series: Toxicity in Mus musculus (mouse) transplanted with mouse EAC cells assessed as effect on WBC level measured per 10^3 cells at 20 mg/kg, ip on day 13 post tumor implantation (reference value: 19.49 +/- 0.26 mm3). Further details: dose 20 mg/kg, route intraperitoneal. The settings on record: in vivo. Format: organism-based, Ehrlich.

The test system of series [10] is Mus musculus. Description: Toxicity in Mus musculus (mouse) transplanted with mouse EAC cells assessed as effect on monocytes level at 20 mg/kg, ip measured on day 13 post tumor implantation (reference value: 1.4 +/- 0.24%). Format: organism-based, Ehrlich. Further details: dose 20 mg/kg, route intraperitoneal. The conditions noted are these: in vivo.
Series [11] relates to Mus musculus. Kind of series: Toxicity in Mus musculus (mouse) transplanted with mouse EAC cells assessed as effect on RBC level at 20 mg/kg, ip measured on day 13 post tumor implantation (reference value: 3.95 +/- 0.32 million/mm3). Format: organism-based, Ehrlich. Further details: dose 20 mg/kg, route intraperitoneal. The settings on record: in vivo.
Series [12] can be described thus: Antitumor activity against Mus musculus (mouse) EAC cells transplanted in mouse assessed as increase in life span at 20 mg/kg, ip relative to vehicle-treated control. The format is functional, Ehrlich. The settings on record: route intraperitoneal.
The test system of series [13] is Mus musculus. Kind of series: Toxicity in Mus musculus (mouse) transplanted with mouse EAC cells assessed as effect on neutrophils level at 20 mg/kg, ip measured on day 13 post tumor implantation (reference value: 60.4 +/- 1.5%). The format is organism-based, Ehrlich. More on the design: dose 20 mg/kg, route intraperitoneal. The settings on record: in vivo.
Series [14] deals with Mus musculus. Description: Toxicity in Mus musculus (mouse) transplanted with mouse EAC cells assessed as effect on lymphocytes level at 20 mg/kg, ip measured on day 13 post tumor implantation (reference value: 35.8 +/- 1.15%). Format: organism-based, Ehrlich. Further details: dose 20 mg/kg, route intraperitoneal. The conditions noted are these: in vivo.
Series [15] relates to Mus musculus. Description: Toxicity in Mus musculus (mouse) transplanted with mouse EAC cells assessed as increase in hemoglobin level at 20 mg/kg, ip measured on day 13 post tumor implantation (reference value: 7.5 +/- 0.01 g%). Format: organism-based, Ehrlich. More on the design: dose 20 mg/kg, route intraperitoneal. The conditions noted are these: in vivo.

In the case of `Cc1cc(O)c(-c2csc(N3C(=O)CSC3c3ccc(Cl)cc3)n2)c(=O)o1` (stereo unspecified), the Activity in the series with Mus musculus [1] amounted to 8.54 g%; with Mus musculus [2] it was 2.76 million/mm3; in the series on Mus musculus [3] it was 44%; in the series on Mus musculus [4], 52.2%; in the series on Mus musculus [5] it was 3%; in series [6], 49.73%. The Activity was 20.83% in series [7] and 18.2 10^3 cells/mm3 in the series on Mus musculus [8].

Regarding `Cc1cc(O)c(-c2csc(NC(=O)CN3CCN(C)CC3)n2)c(=O)o1`, the Activity with Mus musculus [1] is recorded as 10.64 g%; in the series on Mus musculus [2] it was 5 million/mm3; with Mus musculus [3] it was 35.4%; in the series on Mus musculus [4], 63.2%; in the series with Mus musculus [5], 1.4%; in series [6] it was -1.007%. Also, the Activity is -1.04% in series [7] and 19.6 10^3 cells/mm3 with Mus musculus [8].

Consider `Cc1cc(O)c(-c2csc(NC(=O)CN3CCN(c4ccc(F)cc4)CC3)n2)c(=O)o1`, for which the Activity in the series on Mus musculus [1] stood at 11.96 g%; with Mus musculus [2] it was 17.29 million/mm3; in the series on Mus musculus [3] it was 31%; in the series with Mus musculus [4] it was 66%; in the series on Mus musculus [5] it was 3%; in [6] it was 48.32%. The Activity is -39.58% in series [7] and 17.6 10^3 cells/mm3 in the series on Mus musculus [8].

For the molecule `Cc1cc(O)c(-c2csc(N3C(=O)CSC3c3ccc(O)cc3)n2)c(=O)o1` (stereo unspecified), the Activity came to 13.08 g% in the series on Mus musculus [1]; 5.63 million/mm3 in the series on Mus musculus [2]; 61% in the series on Mus musculus [3]; 34% in the series on Mus musculus [4]; 4.8% in the series with Mus musculus [5]; 61.78% in [6]. Further, the Activity was 34.37% in series [7] and 16.6 10^3 cells/mm3 with Mus musculus [8].

As to `O=c1[nH]cc(F)c(=O)[nH]1` [FLUOROURACIL], the Activity in the series with Mus musculus [9] was 15.6 mm3; in the series with Mus musculus [10], 1.2%; in the series on Mus musculus [11] it was 4.67 million/mm3; in series [12] it was 57.29%; in the series with Mus musculus [13] it was 27.8%; in the series on Mus musculus [14] it was 71%. Besides, the Activity with Mus musculus [15] came out at 13.99 g%.

As for `COc1cc(C2SCC(=O)N2c2nc(-c3c(O)cc(C)oc3=O)cs2)cc(OC)c1OC` (stereo unspecified), the Activity was 10.48 g% in the series with Mus musculus [1]; 17.78 million/mm3 in the series with Mus musculus [2]; 39.4% with Mus musculus [3]; 58.2% with Mus musculus [4]; 2% in the series on Mus musculus [5]; -1.047% in series [6]. For the same molecule, the Activity in series [7] is -1.04%; with Mus musculus [8], 19.2 10^3 cells/mm3.

For the molecule `Cc1cc(O)c(-c2csc(NC(=O)CN3CCN(C(=O)c4ccco4)CC3)n2)c(=O)o1`, the Activity with Mus musculus [1] is reported as 13.21 g%; in the series with Mus musculus [2], 6.28 million/mm3; with Mus musculus [3], 62%; in the series on Mus musculus [4], 34%; in the series on Mus musculus [5] it was 4.6%; in [6], 46.59%. Also, the Activity is -12.5% in series [7] and 48.6 10^3 cells/mm3 in the series with Mus musculus [8].

With `COc1ccccc1N1CCN(CC(=O)Nc2nc(-c3c(O)cc(C)oc3=O)cs2)CC1`, the Activity is listed as 12.52 g% in the series with Mus musculus [1]; 4.12 million/mm3 in the series on Mus musculus [2]; 70% in the series on Mus musculus [3]; 25% in the series with Mus musculus [4]; 4.8% in the series on Mus musculus [5]; 58.11% in series [6]. Further, the Activity was 27.08% in [7] and 15.7 10^3 cells/mm3 in the series with Mus musculus [8].

Consider `Cc1cc(O)c(-c2csc(N3C(=O)CSC3c3cccc([N+](=O)[O-])c3)n2)c(=O)o1` (stereo unspecified), for which the Activity in the series on Mus musculus [1] turned out to be 11.35 g%; in the series with Mus musculus [2], 19.07 million/mm3; with Mus musculus [3], 32%; in the series with Mus musculus [4], 63.2%; in the series on Mus musculus [5] it was 4%; in series [6], 33.5%. For the same molecule, the Activity in series [7] was -23.95%; with Mus musculus [8] it was 33.9 10^3 cells/mm3.
